In series [1] the test system is endothelial cell-neutrophil interaction. The series can be described thus: Anti-inflammatory tests using pseudo-blood vessel model (neutrophil transmigration and adhesion). It is filed as cell-based, bovine. Conditions: for neutrophil transmigration and adhesion: 0.1 and 1 microM compound, 10 microM AHOP in lower compartment, FIG. 4. The protocol: Transwells were used, each consisting of an upper compartment separated from a lower compartment by a porous membrane. A single layer of bovine endothelial cells was cultured on the porous membrane at the bottom surface of the transwell upper compartment. A suspension of fluorescence-labeled neutrophils was added to the transwell upper compartment, and AHOP was suspended within the lower compartment to an end concentration of 0.1 to 10 microM. That is, a pseudo-blood vessel in vitro inflammation model was thus constructed in which the upper compartment and the lower compartment of the transwell were isolated from each other via the endothelial layer, and the upper compartment corresponded to the interior of a blood vessel, while the lower compartment corresponded to the site of inflammation outside the blood vessel. Measurements were made of the number of the neutrophils passing from the upper compartment into the lower compartment through the endothelial layer, and the number of the neutrophils adhering to the endothelial layer. […] That is, AHOP was considered to act as an inflammation-inducing substance.
That is, the compound of Example 2 or 3 was added in an amount of 0.01 to 1 microM to the upper compartment or lower compartment of the transwell, and 10 microM AHOP was placed in the lower compartment to induce inflammation. As a control, inflammation was induced in the same way as above but without addition of any compounds of the invention.
Measurements were made of the number of the neutrophils passing from the upper compartment into the lower compartment through the endothelial layer, and the number of the neutrophils adhering to the endothelial layer. A relative neutrophil count (%) was calculated from the following equation:
Relative neutrophil count (%)=[number of neutrophils (passing and adhering) in the experimental group]/[number of neutrophils (passing and adhering) in the control]×100

A further series has as its system cancer cell strain F10. Conditions: F10 cells; AHOP concentration of 10^−8 to 10^−6 M; maximum; cited from earlier work.
The test system of a further series is Edg receptors. Nature of the series: Competition experiments using ^3H-AHOP on HL60 cells. The series is classed as binding. Conditions: for competition with ^3H-AHOP: HL60 cells, ^3H-AHOP 1 nM, unlabeled compound 10 nM, 30 nM or 100 nM, 30 minutes at 4° C.; for inhibition of binding of ^3H-AHOP (to HL60 cells): compound 1 nM, 3 nM and 10 nM, FIG. 2. The protocol:
The same premyeloblastoma cell strain HL60 expressing Edg receptors on the cell surface as used in Example 4 was used. The cells were harvested by centrifugation, then suspended in an F-12 culture medium (stored at 4° C., 10 ml), and carried into an RI laboratory. ^3H-AHOP (15 μCi/1 nM) at an end concentration of 1 nM, and an unlabeled compound (the compound of Example 2 or Example 3) at an end concentration of 10 nM, 30 nM or 100 nM were each added to 200 μl of the cell suspension (1×10^6 cells/ml F-12), and a binding test was conducted for 30 minutes at 4° C. (with occasional stirring). After centrifugation for 7 minutes at 12,000 rpm, the supernatant was rapidly (without damaging cell pellets) discarded with a micropipetter. The cell pellets were suspended in 1.5 ml of Ready Safe (Beckman), whereafter the suspension was transferred into a vial and measured for radioactivity by a liquid scintillation counter L2100 (Beckman).
The compounds of Example 2 and Example 3 were subjected to the same competition experiments as described above, except that they were added at concentrations of 1 nM, 3 nM and 10 nM.

The subject of series [2] is vascular smooth muscle cells. The series can be described thus: Action on vascular smooth muscle growth (BrdU assay). The series is classed as cell-based. Conditions: rat vascular smooth muscle cells, sphingosylphosphorylcholine 10 μM, 24 hours, FIG. 3. As for the experimental part: Thus, the actions of the compounds of Examples 2 and 3 on the growth of vascular smooth muscle cells were measured in the manner described below. Suramin confirmed to have Edg receptor antagonism was used as a positive control.
The rat carotid intima was rubbed by ballooning, and a tissue fragment was cultured by explant culture. Two weeks later, vascular smooth muscle cells harvested were cultured in a DMEM culture medium (Gibco) containing 10% fetal bovine serum. The cultures were subcultured several times for stabilization, whereafter the subcultures were seeded at a cell density of 5×10^3 cells/cm^2 for use in experiments.
Along with the growth factor sphingosylphosphorylcholine (10 μM), the compound of Example 2 or 3, or suramin was added to the cells, and 24 hours later, the cell density was measured by BrdU assay (Science '82, 218, p. 474, Cytometry '85, 6, p. 584).
In general terms: Incorporation of labelled thymidine or its analogues reports DNA synthesis.

Series [3] deals with myocardial infarction due to reperfusion following ligation of the rabbit coronary artery. Nature of the series: Ligation-associated myocardial infarction model. It is filed as in vivo. The protocol:
The compound of Example 2 was used as a test substance for investigating its effect on myocardial infarction due to reperfusion following ligation of the rabbit coronary artery. Male NZW rabbits (weighing 2.83 to 3.20 kg) were purchased from Kitayama Labes, Co. Ltd., and bred and raised under the conditions: room temperature 20-26° C., humidity 40-70%, and illumination time 12 hours/day (7-19:00). The animals were allowed food and water ad libitum, and quarantined and acclimatized for 2 weeks or more. Then, the animals in good health were used. The above rabbits were administered 10 mg/kg of the compound of Example 2 through the jugular vein under anesthesia, and then the compound of Example 2 was continuously infused in a dose of 6.9 micro g/kg/min. In a control group, physiological saline (hereinafter referred to as PS) was administered in the same manner as in the experimental group. Then, coronary artery was ligated for 30 minutes, whereafter the ligature was released for reperfusion, and the blood pressure in the carotid artery, the pulse rate and the number of arrhythmias were measured. The carotid arterial blood pressure and pulse rate were measured before administration, during continuous intravenous infusion, during the ligation period (15 minute later and 30 minutes later), and during reperfusion. The carotid arterial blood pressure was calculated as mean blood pressure. The number of arrhythmias was counted as the number of extrasystoles that appeared during the ligation period (for 30 minutes) or during reperfusion. After 3 hours of reperfusion, the heart was removed, and sliced into 6 pieces. The living tissues were stained with 2,3,5-triphenyltetrazolium […] (TTC), the area of the infarct due to ligation was measured, and the percent of the infarct with respect to the area of the left ventricle was calculated.

A further series concerns Edg receptor. The series can be described thus: Edg receptor response test (intracellular Ca^2+ increase by AHOP in HL60 cells). The series is classed as cell-based. Conditions: for concentration at which the Ca^2+ concentration increase by AHOP was dose-dependently suppressed / increase in the intracellular Ca^2+ concentration by the addition of AHOP: HL60 cells; for concentration at which the Ca^2+ concentration increase by AHOP was dose-dependently suppressed: AHOP 1 μM, FIG. 1; for increase in the intracellular Ca^2+ concentration by the addition of AHOP: test substance 30 μM, then AHOP 1 μM. An excerpt:
HL 60 cells were obtained from a cell bank, and subcultured for about 50 passages over a half-year period in accordance with the method described in BBRC '98, 263, p. 253 using an RPMI-1640 culture medium (Gibco) containing 10% fetal bovine serum to prepare a premyeloblastoma cell strain HL60 expressing Edg receptors on the cell surface. Using the premyeloblastoma cell strain HL60 expressing Edg receptors on the cell surface, the cell response of test substances was investigated. An increase in the intracellular Ca^2+ concentration was measured as an indicator of cell response. It is reported that when the Edg receptor on the HL60 cell surface is bound to AHOP, it phosphorylates G protein to activate IP3 kinase, whereafter the intracellular Ca^2+ concentration increases (FEBS Letter '96, 379, p. 260, BBRC '98, 253, p. 253). Thus, the intracellular Ca^2+ concentration serves as an indicator of Edg receptor response.
A Ca^2+ chelating reagent, Fura-2AM, was taken into HL60 cells.
A cell suspension (1.2 ml) was charged into a quartz cell, which was then mounted on a fluorometer LS50B (Perkin Elmer, for cell measurement). An excitation wavelength was alternately switched between 340 nm (exciting Fura-2 having chelated Ca^2+) and 380 nm (exciting unreacted Fura-2) at intervals of 0.5 milli second, and fluorescence intensity at 510 nm was measured.
Each test substance was added at an end concentration of 30 μM by means of a microsyringe, and then fluorescence intensity was traced to investigate whether Ca^2+ would increase or not. It was also confirmed whether Ca^2+ would increase or not when AHOP (1 μM) was added after addition of the test substance. Through these tests, the AHOP antagonism of each substance was studied.
Suramin, already confirmed to have antagonistic action, was used as a comparison. The experimental procedure was the same as described above, except that AHOP (1 μM) was added after addition of the test substance at varying concentration. An increase in the Ca^2+ concentration was evaluated by an increased Ca^2+ concentration (%) as a value relative to the increased Ca^2+ concentration in a negative control group (no drug added).

[4] abbreviates: rabbit acute myocardial infarction models.
[5] abbreviates: rabbit, 10 mg/kg jugular vein then 6.9 micro g/kg/min infusion.
[6] abbreviates: rabbit, 10 mg/kg then 6.9 micro g/kg/min, ligation 15 min.
The mark [7] stands for this setting: rabbit, 10 mg/kg then 6.9 micro g/kg/min, ligation 30 min.
[8] abbreviates: rabbit, 10 mg/kg then 6.9 micro g/kg/min, reperfusion 180 min.
The mark [9] stands for this setting: rabbit, baseline before administration.

One may read the melting point as the temperature of the solid-liquid transition. The compound `CCCCCCCCCCCCCC[C@H](O)C(=O)N[C@H](CO)[C@@H](O)/C=C/CC/C=C(\C)CCCCCCCCC` [Example 1, (4E,8E,2R,3S,2′S)-N-2′-hydroxyhexadecanoyl-9-methyl-4,8-octadecadiene-1,3-diol] yielded a melting point of 62 to 63 °C.

As to `CCCCCCCCCCCCCC=CC(O)C(N)COP(=O)(O)O` (stereo not drawn) [AHOP, 2-amino-3-hydroxy-4-octadecene-1-phosphate, reference compound], the “transmigration through the endothelial layer and adhesion of the neutrophils (inflammation-inducing action)” value in series [1] (AHOP 10 microM in lower compartment) is “promoted significantly”. The suppression of migration in the series on cancer cell strain F10 was roughly 80%.

`CCCCCCCCCCCCCC[C@H](O)C(=O)N[C@H](CO)[C@@H](O)/C=C/CC/C=C(\C)CCCCCCCCC` [Example 2, (4E,8E,2R,3S,2′S)-N-2′-hydroxyhexadecanoyl-9-methyl-4.8-octadecadiene-1,3-diol]: the “neutrophil transmigration and adhesion” value in series [1] was “suppressed”. In the series on Edg receptors, the “competition with ^3H-AHOP” value is given as “competitive with ^3H-AHOP” and the “inhibition of binding of ^3H-AHOP (to HL60 cells)” value was “Dose-dependent inhibition”. In addition, the “concentrations at which vascular smooth muscle growth was inhibited” value in series [2] is 0.3 to 3 µM. Further, in series [3] (setting [4]), the “ligation-associated decrease in pulse rate (in words)” value was “tended to inhibit”, the “number of arrhythmias due to ligation (in words)” value is listed as “reduce the number of arrhythmias due to ligation” and the “percent area of the infarct (in words)” value is “tendency toward decreasing”. In series [3] (setting [5]), the “Mean blood pressure, continued i.v. infusion” value turned out to be 74 ± 9 mmHg and the “Pulse rate, continued i.v. infusion” value is listed as 283 ± 10 beats/min. In series [3] (setting [6]), the “Mean blood pressure, ligation 15 min” value turned out to be 59 ± 10 mmHg and the “Pulse rate, ligation 15 min” value came to 270 ± 9 beats/min. In series [3] (setting [7]), the “Mean blood pressure, ligation 30 min” value was 66 ± 8 mmHg and the “Pulse rate, ligation 30 min” value came to 282 ± 4 beats/min. In series [3] (setting [8]), the “Mean blood pressure, reperfusion 180 min” value is 68 ± 4 mmHg and the “Pulse rate, reperfusion 180 min” value was found to be 256 ± 10 beats/min. Also, the “Infarct/left ventricle (percent area of the infarct)” value in series [3] (rabbit, after 3 hours of reperfusion, TTC staining) is 14.0 ± 2.1%. In series [3] (setting [9]), the “Mean blood pressure, before administration” value is reported as 83 ± 4 mmHg and the “Pulse rate, before administration” value stood at 301 ± 9 beats/min. Moreover, in series [3] (rabbit, extrasystoles during reperfusion), the “number of arrhythmias, reperfusion” value was 17 ± 6. Besides, the “number of arrhythmias, ligation” value in series [3] (rabbit, extrasystoles during the ligation period (30 minutes)) stood at 12 ± 5. Moreover, the “strength of the action in comparison with suramin (ED50)” value in the series with Edg receptor (ED50 for intracellular Ca^2+ increase) is “about 40 times”. Moreover, in the series on Edg receptor, the “concentration at which the Ca^2+ concentration increase by AHOP was dose-dependently suppressed” value lay in the range of 0.03 to 0.3 µM and the “increase in the intracellular Ca^2+ concentration by the addition of AHOP” value was “inhibited”.

Regarding `CCCCCCCCCCCCCCC(O)C(=O)N[C@@H](CO)[C@H](O)/C=C/CCCC(C)CCCCCCCCC` (stereo partly drawn) [Example 3, (4E,2S,3R,2′RS)-N-2′-hydroxyhexadecanoyl-9-methyl-4-octadecene-1,3-diol], the melting point is 52 to 57 °C. Also, the “neutrophil transmigration and adhesion” value in series [1] is “suppressed”. In addition, in the series on Edg receptors, the “competition with ^3H-AHOP” value is on record as “competitive with ^3H-AHOP” and the “inhibition of binding of ^3H-AHOP (to HL60 cells)” value is listed as “Dose-dependent inhibition”. For the same compound, the “concentrations at which vascular smooth muscle growth was inhibited” value in series [2] lay within 1 to 10 µM. Also, in the series on Edg receptor, the “concentration at which the Ca^2+ concentration increase by AHOP was dose-dependently suppressed” value was 0.3 to 3 µM and the “increase in the intracellular Ca^2+ concentration by the addition of AHOP” value is “inhibited”.

The record behind these values is US6835846B2, “Aliphatic compounds, process for their preparation and their usage” (Maruha Corporation, priority 2000, dated 2004).
